Measured values taken from PubChem BioAssay AID248 (DTP/NCI, 2004).
Several values for one entry are separate records, joined by “and”; a condition that tells them apart may be missing. Identical values can stand only once. Toxic doses and inconclusive results are not listed. Rule as the data show it: active = T/C of 150% or more; inactive = T/C below 125%.

Tested on: L1210 leukemia ip in BDF1 mice, survival T/C
Test: NCI In Vivo Anticancer Drug Screen. Data for tumor model L1210 Leukemia (intraperitoneal) in B6D2F1 (BDF1) mice
Details: endpoint: mean survival time, higher = longer survival
How it was run: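 Each compound was tested against a transplantable tumor grown in mice. The endpoint was survival, with treated animals benchmarked against vehicle controls as a simple ratio.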

[1] = dose: 100.0 mg/kg/injection, schedule: Q04DX002 (ip), vehicle: Klucel (hydroxypropylcellulose) (HPC)
[2] = dose: 200.0 mg/kg/injection, schedule: Q04DX002 (ip), vehicle: Klucel (hydroxypropylcellulose) (HPC)
[3] = dose: 400.0 mg/kg/injection, schedule: Q04DX002 (ip), vehicle: Klucel (hydroxypropylcellulose) (HPC)
[4] = dose: 100.0 mg/kg/injection, schedule: Q01DX001 (ip), vehicle: saline
[5] = dose: 200.0 mg/kg/injection, schedule: Q01DX001 (ip), vehicle: saline
[6] = dose: 400.0 mg/kg/injection, schedule: Q01DX001 (ip), vehicle: saline
[7] = dose: 100.0 mg/kg/injection, schedule: Q04DX003 (ip), vehicle: saline with Tween-80
[8] = dose: 200.0 mg/kg/injection, schedule: Q04DX003 (ip), vehicle: saline with Tween-80
[9] = dose: 400.0 mg/kg/injection, schedule: Q04DX003 (ip), vehicle: saline with Tween-80
[10] = dose: 6.25 mg/kg/injection, schedule: Q01DX009 (ip), vehicle: saline
[11] = dose: 12.5 mg/kg/injection, schedule: Q01DX009 (ip), vehicle: saline

Measured: T/C

CC(c1ccccc1)C(O)c1ccccc1 (centres undefined)
inactive: dose: 100.0 mg/kg/injection, schedule: Q01DX001 (ip), vehicle: saline with Tween-80 97 % of control | dose: 200.0 mg/kg/injection, schedule: Q01DX001 (ip), vehicle: saline with Tween-80 91 % of control | dose: 400.0 mg/kg/injection, schedule: Q01DX001 (ip), vehicle: saline with Tween-80 91 % of control

CCOC(=O)/C(=C\c1ccc(N(C)C)cc1)c1nc2ccccc2[nH]1
inactive: dose: 100.0 mg/kg/injection, schedule: Q04DX002 (ip), vehicle: saline with Tween-80 92 % of control | dose: 200.0 mg/kg/injection, schedule: Q04DX002 (ip), vehicle: saline with Tween-80 92 % of control | dose: 400.0 mg/kg/injection, schedule: Q04DX002 (ip), vehicle: saline with Tween-80 104 % of control

O=C1C=C(c2ccccc2)C(=O)C2(c3ccccc3)C=CCC(c3ccccc3)C12 (centres undefined)
inactive: [1] 113 % of control | [2] 113 % of control | [3] 95 % of control

O=C1CCCCC(=O)CCCC1
inactive: [4] 102 % of control | [5] 100 % of control | [6] 105 % of control

CCc1occ(C(=O)OC)c1C1SCCS1
inactive: [4] 92 % of control | [5] 97 % of control | [6] 91 % of control

COc1ccc(OC)c(C(=O)CCC(=O)O)c1
inactive: dose: 50.0 mg/kg/injection, schedule: Q01DX001 (ip), vehicle: carboxymethylcellulose (CMC) 94 % of control | dose: 100.0 mg/kg/injection, schedule: Q01DX001 (ip), vehicle: carboxymethylcellulose (CMC) 110 % of control | dose: 200.0 mg/kg/injection, schedule: Q01DX001 (ip), vehicle: carboxymethylcellulose (CMC) 100 % of control | dose: 400.0 mg/kg/injection, schedule: Q01DX001 (ip), vehicle: carboxymethylcellulose (CMC) 107 % of control

S=C(Sc1ccc(Cl)cc1)Sc1ccc(Cl)cc1
inactive: [4] 93 % of control | [5] 93 % of control | [6] 90 % of control

CSc1nc(O)c(-c2ccccc2)c(=O)[nH]1
inactive: dose: 100.0 mg/kg/injection, schedule: Q01DX Z (ip), vehicle: methylcellulose (MC) 103 % of control | dose: 200.0 mg/kg/injection, schedule: Q01DX Z (ip), vehicle: methylcellulose (MC) 101 % of control

C#CC(C)OCC(C)OC (centres undefined)
inactive: dose: 25.0 mg/kg/injection, schedule: Q01DX009 (ip), vehicle: acetone 97 % of control | dose: 50.0 mg/kg/injection, schedule: Q01DX009 (ip), vehicle: acetone 103 % of control | dose: 100.0 mg/kg/injection, schedule: Q04DX003 (ip), vehicle: acetone 102 % of control

C/C(=N\NC(=S)Nc1cc(Cl)ccc1Cl)c1ccc(O)c(C)c1
inactive: dose: 12.5 mg/kg/injection, schedule: Q04DX002 (ip), vehicle: Klucel (hydroxypropylcellulose) (HPC) 102 % of control | dose: 25.0 mg/kg/injection, schedule: Q04DX002 (ip), vehicle: Klucel (hydroxypropylcellulose) (HPC) 102 % of control | dose: 50.0 mg/kg/injection, schedule: Q04DX002 (ip), vehicle: Klucel (hydroxypropylcellulose) (HPC) 105 % of control

OC1CCC2CCC(O)CC2C1 (centres undefined)
inactive: [7] 105 % of control | [8] 105 % of control | [9] 92 % of control

CC(C)CC(=O)OC1CCCCC1
inactive: [7] 106 % of control | [8] 101 % of control | [9] 95 % of control

NC(CCl)=NCc1ccccc1
inactive: [10] 97 % of control and 98 % of control | [11] 101 % of control and 115 % of control | dose: 25.0 mg/kg/injection, schedule: Q01DX001 (ip), vehicle: saline 98 % of control | dose: 25.0 mg/kg/injection, schedule: Q04DX002 (ip), vehicle: saline 105 % of control and 91 % of control | dose: 25.0 mg/kg/injection, schedule: Q04DX003 (ip), vehicle: saline 90 % of control | dose: 50.0 mg/kg/injection, schedule: Q01DX001 (ip), vehicle: saline 97 % of control | dose: 50.0 mg/kg/injection, schedule: Q04DX002 (ip), vehicle: saline 94 % of control and 89 % of control | dose: 50.0 mg/kg/injection, schedule: Q04DX003 (ip), vehicle: saline 97 % of control | dose: 100.0 mg/kg/injection, schedule: Q04DX003 (ip), vehicle: saline 95 % of control

Clc1ccc(/C=N/Nc2nc3ccccc3s2)c(Cl)c1
inactive: [7] 93 % of control | dose: 111.0 mg/kg/injection, schedule: Q01DX Z (ip), vehicle: methylcellulose (MC) 105 % of control | dose: 166.0 mg/kg/injection, schedule: Q01DX Z (ip), vehicle: methylcellulose (MC) 98 % of control | [8] 93 % of control | dose: 250.0 mg/kg/injection, schedule: Q01DX Z (ip), vehicle: methylcellulose (MC) 103 % of control | [9] 93 % of control

COc1ccccc1NC(=O)NC1CCCCC1
inactive: dose: 100.0 mg/kg/injection, schedule: Q01DX009 (ip), vehicle: Klucel (hydroxypropylcellulose) (HPC) 100 % of control | dose: 200.0 mg/kg/injection, schedule: Q01DX009 (ip), vehicle: Klucel (hydroxypropylcellulose) (HPC) 100 % of control | dose: 400.0 mg/kg/injection, schedule: Q01DX009 (ip), vehicle: Klucel (hydroxypropylcellulose) (HPC) 102 % of control

O=C(O)c1cccc2c1C(=O)c1c(Cl)cccc1C2=O
inactive: [1] 99 % of control | [2] 99 % of control | [3] 99 % of control

CSc1cc(-c2ccc(Cl)cc2)s[s+]1
inactive: dose: 12.5 mg/kg/injection, schedule: Q01DX009 (ip), vehicle: saline with Tween-80 95 % of control | dose: 25.0 mg/kg/injection, schedule: Q01DX009 (ip), vehicle: saline with Tween-80 90 % of control | dose: 25.0 mg/kg/injection, schedule: Q04DX003 (ip), vehicle: saline with Tween-80 100 % of control | dose: 50.0 mg/kg/injection, schedule: Q01DX009 (ip), vehicle: saline with Tween-80 97 % of control | dose: 50.0 mg/kg/injection, schedule: Q04DX003 (ip), vehicle: saline with Tween-80 103 % of control | [7] 98 % of control and 86 % of control

O=S1(=O)CCCC1=C(c1ccccc1)c1ccccc1
inactive: dose: 100.0 mg/kg/injection, schedule: Q01DX009 (ip), vehicle: saline with Tween-80 105 % of control | dose: 200.0 mg/kg/injection, schedule: Q01DX009 (ip), vehicle: saline with Tween-80 100 % of control | dose: 400.0 mg/kg/injection, schedule: Q01DX009 (ip), vehicle: saline with Tween-80 107 % of control

CC(C)CC(CC(C)C)NC(C)COC(=O)C(c1ccccc1)c1ccccc1 (centres undefined)
inactive: dose: 75.0 mg/kg/injection, schedule: Q01DX001 (ip), vehicle: saline 98 % of control | dose: 150.0 mg/kg/injection, schedule: Q01DX001 (ip), vehicle: saline 102 % of control | dose: 300.0 mg/kg/injection, schedule: Q01DX001 (ip), vehicle: saline 100 % of control

CCN(CC)CCOC(=O)C(c1ccccc1)C1CCCCC1 (centres undefined)
inactive: [10] 105 % of control | [11] 95 % of control | dose: 25.0 mg/kg/injection, schedule: Q01DX009 (ip), vehicle: saline 95 % of control | dose: 50.0 mg/kg/injection, schedule: Q01DX009 (ip), vehicle: saline 103 % of control | dose: 100.0 mg/kg/injection, schedule: Q01DX009 (ip), vehicle: saline 103 % of control

C/C=N\N=C(N)N
inactive: dose: 15.0 mg/kg/injection, schedule: Q01DX Z (ip), vehicle: saline 91 % of control | dose: 30.0 mg/kg/injection, schedule: Q01DX Z (ip), vehicle: saline 97 % of control | dose: 60.0 mg/kg/injection, schedule: Q01DX Z (ip), vehicle: saline 100 % of control | dose: 120.0 mg/kg/injection, schedule: Q01DX Z (ip), vehicle: saline 94 % of control | dose: 120.0 mg/kg/injection, schedule: Q01DX Z (oral), vehicle: other 95 % of control | dose: 240.0 mg/kg/injection, schedule: Q01DX Z (oral), vehicle: other 97 % of control | dose: 480.0 mg/kg/injection, schedule: Q01DX Z (oral), vehicle: other 102 % of control | dose: 960.0 mg/kg/injection, schedule: Q01DX Z (oral), vehicle: other 122 % of control

O=C(NCCCl)Nc1cccc2c1CCC2
inactive: dose: 100.0 mg/kg/injection, schedule: Q04DX003 (ip), vehicle: Klucel (hydroxypropylcellulose) (HPC) 93 % of control | dose: 200.0 mg/kg/injection, schedule: Q04DX003 (ip), vehicle: Klucel (hydroxypropylcellulose) (HPC) 86 % of control
